# In patent US8445461B2, “Pharmaceutical composition for meniere's disease” (Setsuko Takeda, priority 2007, dated 2013):
# How the values were obtained:
# [1] = tested on: experimental endolymphatic hydrops; test: Endolymphatic hydrops decompression effect: IR-L, IR-S and regression lines in the operated ear; assay type: in vivo, guinea pigs; settings: for Regression line IR-S vs IR-L: Y-intercept / Regression line IR-S vs IR-L: slope: operated ears; for Regression line IR-S vs IR-L: Y-intercept / Regression line IR-S vs IR-L: slope / IR-L (%) increase ratio of the length of Reissner's membrane / IR-S (%) increase ratio of the cross-sectional area of the scala media: active agent 2.8 g/kg oral; for IR-L (%) increase ratio of the length of Reissner's membrane / IR-S (%) increase ratio of the cross-sectional area of the scala media: operated side
# Experimental: The endolymphatic hydrops-decompression effect of saccharides or sugar alcohols was evaluated by assaying as below in triplicate. Firstly, guinea pigs received the surgical obliteration of the endolymphatic sac in the left ear to prepare “experimental model animals with endolymphatic hydrops”. The surgical obliteration of the endolymphatic sac was carried out by burning the extraskeletal portion in the endolymphatic sac with a bipolar electrocoagulator. An endolymphatic sac plays an important role in the absorption of endolymphatic fluid. The inhibition of absorption of endolymphatic fluid was caused by burning the endolymphatic sac to prepare an experimental endolymphatic hydrops. Those hydrops are progressively formed. The size of hydrops becomes constant 2 weeks to month after the surgery and maintained for several months. In detail, see Non-patent Reference 8 for the surgery.
# After 1 month, they were divided into 3 groups: Group 2-1 (groups 1-6), 60 animals; Group 2-2 (groups 7-10), 40 animals; and Group 2-3 (groups 11-20), […]. The animals in Group 2-1 received saccharides or sugar alcohols alone (Reference Example 5). The animals in Group 2-2 orally received saccharides or sugar alcohols added polysaccharides. The animals in Group 2-3 received other combinations of saccharides or sugar alcohols added polysaccharides. Animals were sacrificed after the oral administration and the observation and the assessment the gastrointestinal condition, and observed the morphological change of the cochlea mainly in the operated side (left side), in particular of the endolymphatic hydrops decompression effect.
# I were obtained left sides of the temporal bones immediately following fixation and kept them in 10% formalin solution for 10 days or more. They were decalcified with 5% trichloroacetic acid and dehydrated with alcohol in increasing concentration, then embedded in paraffin and celloidin. The prepared blocks were cut serially in the horizontal plane. The mid-modiolar sections were stained in hematoxylin and eosin and studied under a light microscope. For the quantitative assessment of changes of the endolymphatic space, the change ratios of the length of Reissner's membrane and the cross-sectional area of the scala media in each turn were measured from the mid-modiolar sections of the cochlea.
# From these parameters, the increase ratios (%) of the length of Reissner's membrane (IR-L) and the cross-sectional area (%) of the scala media (IR-S) of a total of four turns were calculated according to the equation as described below:
# The increase ratio of the length of Reissner's membrane (IR-L)=100×Σ(Lx−L*x)/ΣL*x (x: first, second, third and fourth turns)
# The increase ratio of the cross-section area of the scala media (IR-S)=100×Σ(Sx−S*x)/ΣS*x (x: first, second, third and fourth turns)
# Since almost no difference is shown in the regression lines of each group, it cannot be understood that there is the decompression effect of erythritol alone. When endolymphatic hydrops is formed, the cross-sectional area of scala media and the length of Reissner's membrane will increase. It can be assumed from FIG. 1 that there is statistically a primary correlation between both of them in the operated side in the control group. The regression lines are; IR-S (distilled water)=4.011+1.212*IR-L (distilled water); R2=0.987, IR-S (1 hour after)=5.409+1.1*IR-L (1 hour after); R2=0.903, IR-S (2 hours after)=1.125+0.992*IR-L (2 hours after); R2=0.98, IR-S (3 hours after)=2.407+1.309*IR-L (3 hours after); R2=0.974, IR-S (6 hours after)=7.36+1.147*IR-L (6 hours after); R2=0.895, IR-S (12 hours after)=8.089+1.152*IR-L (12 hours after); R2=0.918.
# The difference of decompression effect on endolymphatic hydrops depending on dose of pectin added and time-course of the decompression effect can hardly determined by comparing and analyzing the average and standard deviation of IR-L and IR-S in the operated side in each groups. […]
# [2] = Volume of agent: volume, weight and particle size of formulations (Example 4); assay type: physicochemical; settings: 21 g of erythritol
# Experimental: When erythritol is administered to an adult (60 kg body weight), the single dose may be 10 to 80 g, preferably 20 to 60 g. When 21 g of erythritol is administered as powder, the volume may be about 53 ml. Alternatively, administered as saturated aqueous solution, it requires 65 ml of distilled water, and volume and weight thereof is 78 ml and 86 g, respectively. Carrying it to administer 3 times daily is inconvenient for a patient with Meniere's disease.
# The volume of this gel formulation is 20.25 ml and the weight thereof is 36 g. By drying and grinding this gel formulation, the volume increases to 33 ml, however it is convenient for carrying. The particle size of dry milled powder is described in Table 44. If water (10 ml) is added thereto prior to use and mixed, a gel formulation (23 ml) is again obtained.
# The volume of this gel formulation is 20.25 ml and the weight thereof is 26.1 g. By drying and grinding this gel formulation, the volume increases to 31.5 ml. The particle size of dry milled powder is described in Table 44. If water (3 ml) is added thereto prior to use and mixed, a gel formulation (24 ml) is again obtained.
# [3] = tested on: animal model of experimental endolymphatic hydrops; test: Reference Example 6: erythritol added polyvinylpyrrolidone, conditions of feces; assay type: in vivo, guinea pigs; settings: erythritol 2.8 g/kg oral, alone or with PVP
# Experimental: Guinea pigs (280 to 350 g of body weight, normal feces) received the surgical obliteration of the endolymphatic sac in the left ear to prepare an “animal model of experimental endolymphatic hydrops”. The surgery was performed as previously described in Non-patent Reference 8.
# One month after, the animals orally received erythritol (2.8 g/kg) added polyvinylpyrrolidone (0.5 g/kg, about 7.1% by weight). […] The result is shown in FIG. 10 with comparing Group 4 in Example 2 (Animals were sacrificed 3 hours after the administration of erythritol 2.8 g/kg alone).
# [4] = alone or with additive, 3 hours after
# [5] = alone or with additive, 6 hours after
# [6] = alone or with additive, 12 hours after
# [7] = alone or with additive, perfusion 3 hours after
# [8] = alone or with additive, perfusion 6 hours after
# [9] = alone or with additive, perfusion 12 hours after
smiles,measurement,setting,value
"OC[C@@H](O)[C@@H](O)CO [Erythritol, erythritol]",Difference of regression lines from control (ANCOVA test),"[1]; erythritol 2.8 g/kg alone, E1H to E12H groups (1 to 12 hours after)",no significant difference
same,Regression line IR-S vs IR-L: Y-intercept,[1]; [4],2.407
same,Regression line IR-S vs IR-L: slope,[1]; [4],1.309
same,Regression line IR-S vs IR-L: Y-intercept,[1]; [5],7.36
same,Regression line IR-S vs IR-L: slope,[1]; [5],1.147
same,Regression line IR-S vs IR-L: Y-intercept,[1]; [6],8.089
same,Regression line IR-S vs IR-L: slope,[1]; [6],1.152
same,Regression line IR-S vs IR-L: Y-intercept,[1]; 1 hour after,5.409
same,Regression line IR-S vs IR-L: slope,[1]; 1 hour after,1.1
same,Regression line IR-S vs IR-L: Y-intercept,[1]; 2 hours after,1.125
same,Regression line IR-S vs IR-L: slope,[1]; 2 hours after,0.992
same,IR-L (%) increase ratio of the length of Reissner's membrane,[1]; [7],23.2 ± 16.9%
same,IR-S (%) increase ratio of the cross-sectional area of the scala media,[1]; [7],32.7 ± 22.4%
same,IR-L (%) increase ratio of the length of Reissner's membrane,[1]; [8],37.8 ± 24.8%
same,IR-S (%) increase ratio of the cross-sectional area of the scala media,[1]; [8],51.4 ± 38.1%
same,IR-L (%) increase ratio of the length of Reissner's membrane,[1]; [9],37.5 ± 18.7%
same,IR-S (%) increase ratio of the cross-sectional area of the scala media,[1]; [9],51.4 ± 22.5%
same,IR-L (%) increase ratio of the length of Reissner's membrane,[1]; perfusion 1 hour after,24.2 ± 20.2%
same,IR-S (%) increase ratio of the cross-sectional area of the scala media,[1]; perfusion 1 hour after,32.1 ± 23.3%
same,IR-L (%) increase ratio of the length of Reissner's membrane,[1]; perfusion 2 hours after,29.4 ± 25.5%
same,IR-S (%) increase ratio of the cross-sectional area of the scala media,[1]; perfusion 2 hours after,30.2 ± 26.3%
same,Distilled water required for saturated aqueous solution,[2],65 mL
same,Volume as powder,[2],about 53 ml
same,Volume of saturated aqueous solution,[2],78 mL
same,Weight of saturated aqueous solution,[2],86 g
same,Hardness of feces 0 (Muddy): number of animals,[3],5
same,Hardness of feces 1 (Soft): number of animals,[3],0
same,Hardness of feces 2 (Slightly soft): number of animals,[3],0
same,Hardness of feces 3 (Normal): number of animals,[3],0
